# Tests used:
# [1] = test system: adult subjects with schizophrenia; experiment: PANSS negative subscale score, Clinical Study One; format: in vivo, human; settings: ITT; for PANSS Negative Subscale Score, Trt Effect (bifeprunox—placebo): ANCOVA
# Procedure: (§1) There were five treatment groups in this study. […] Study medication was administered once daily. After Baseline measurements were performed, the titration phase was begun. Bifeprunox treated subjects were titrated up to 5 mg, 10 mg or 20 mg according to a standardized titration schedule (Day 1: 0.125 mg, Day 2: 0.25 mg, Day 3: 0.5 mg, Day 4: 1.0 mg, Day 5: 2.0 mg, Day 6: 5.0 mg, Day 7: 10.0 mg, Day 8: 20 mg). When the assigned dose was reached, subjects were maintained at that dose for the remainder of the six-week treatment period.
# (§2) The change in the Positive and Negative Symptom Scale (PANSS) total score, from baseline to endpoint, was the primary outcome measure. Secondary efficacy measures included: PANSS positive, PANSS negative, PANSS general psychopathology (GPP) score, PANSS-derived Brief Psychiatric Rating Scale (BPRS) score, Clinical Global Impressions-Severity of Illness (CGI-S), CGI-Improvement (CGI-I) scores, and responder rates. Safety and tolerability evaluations included extrapyramidal symptoms (EPS), weight gain, lipid profile, and serum prolactin.
# [2] = test system: adult subjects with schizophrenia; experiment: PANSS general psychopathology subscale score, Clinical Study One; format: in vivo, human; settings: for Change from Baseline in PANSS General Psychopathology Subscale Score, Mean (S.D.) / Change from Baseline in PANSS General Psychopathology Subscale Score, Median / Trt Effect (versus placebo), PANSS General Psychopathology Subscale Score: ITT population; for Trt Effect (versus placebo), PANSS General Psychopathology Subscale Score: ANCOVA
# Procedure: as §1, §2
# [3] = Body weight, Clinical Study One; format: in vivo, human
# Procedure: Statistical testing of the change from Baseline in weight was performed using similar methodology to that used for the secondary efficacy parameters (an ANCOVA model with factors for treatment and weight at Baseline). Pairwise comparisons of the bifeprunox treatment groups versus placebo were all statistically significant (bifeprunox 5 mg [p=0.025], bifeprunox 10 mg [p=0.009] and bifeprunox 20 mg [p=0.031] for the difference between bifeprunox and placebo mean change from Baseline in weight at Endpoint.
# [4] = Clinical laboratory assessments (prolactin), Clinical Study Three; settings: bifeprunox 20, 30 mg; 6 weeks
# Source text: To assess the safety and tolerability of bifeprunox using physical examination, weight, waist circumference, vital signs (pulse rate and systolic/diastolic blood pressure [BP], and oral temperature), 12-lead electrocardiogram (ECG), clinical laboratory assessments (hematology, biochemistry including fasting insulin level, fasting glucose, fasting lipid profile, urinalysis, special laboratory assessments for prolactin, IGF-1, IGFBP-3, and thyroid function), need for anticholinergic treatment during double-blind treatment period, concomitant medication use, adverse event (AE) monitoring, and assessments of abnormal movement including the Simpson-Angus Scale (SAS), Barnes Akathisia Scale (BAS), and Abnormal Involuntary Movement Scale (AIMS).
# [5] = Bifeprunox 10 mg, Endpoint LOCF
# [6] = Bifeprunox 20 mg, Endpoint LOCF
smiles,measurement,setting,value
"O=c1[nH]c2cccc(N3CCN(Cc4cccc(-c5ccccc5)c4)CC3)c2o1 [Bifeprunox, 7-[4-([1,1′-biphenyl]-3-ylmethyl)-1-piperazinyl]-2(3H)-benzoxazolone]","Change from Baseline in PANSS Negative Subscale Score, Mean (S.D.)","[1]; Bifeprunox 5 mg, Endpoint LOCF",−2.2 (4.9)
same,"Change from Baseline in PANSS Negative Subscale Score, Median","[1]; Bifeprunox 5 mg, Endpoint LOCF",−2
same,"PANSS Negative Subscale Score, Trt Effect (bifeprunox—placebo)","[1]; Bifeprunox 5 mg, Endpoint LOCF",−1.0
same,"Change from Baseline in PANSS Negative Subscale Score, Mean (S.D.)","[1]; Bifeprunox 5 mg, Week 1, LOCF",−1.1 (3.9)
same,"Change from Baseline in PANSS Negative Subscale Score, Median","[1]; Bifeprunox 5 mg, Week 1, LOCF",−1
same,"Change from Baseline in PANSS Negative Subscale Score, Mean (S.D.)","[1]; Bifeprunox 5 mg, Week 2, LOCF",−1.8 (4.4)
same,"Change from Baseline in PANSS Negative Subscale Score, Median","[1]; Bifeprunox 5 mg, Week 2, LOCF",−2
same,"Change from Baseline in PANSS Negative Subscale Score, Mean (S.D.)","[1]; Bifeprunox 5 mg, Week 3, LOCF",−1.8 (4.7)
same,"Change from Baseline in PANSS Negative Subscale Score, Median","[1]; Bifeprunox 5 mg, Week 3, LOCF",−2
same,"Change from Baseline in PANSS Negative Subscale Score, Mean (S.D.)","[1]; Bifeprunox 5 mg, Week 4, LOCF",−2.0 (4.9)
same,"Change from Baseline in PANSS Negative Subscale Score, Median","[1]; Bifeprunox 5 mg, Week 4, LOCF",−1
same,"Change from Baseline in PANSS Negative Subscale Score, Mean (S.D.)",[1]; [5],−1.7 (4.7)
same,"Change from Baseline in PANSS Negative Subscale Score, Median",[1]; [5],−1
same,"Change from Baseline in PANSS Negative Subscale Score, Mean (S.D.)","[1]; Bifeprunox 10 mg, Week 1, LOCF",−1.4 (3.4)
same,"Change from Baseline in PANSS Negative Subscale Score, Median","[1]; Bifeprunox 10 mg, Week 1, LOCF",−1
same,"Change from Baseline in PANSS Negative Subscale Score, Mean (S.D.)","[1]; Bifeprunox 10 mg, Week 2, LOCF",−1.5 (4.2)
same,"Change from Baseline in PANSS Negative Subscale Score, Median","[1]; Bifeprunox 10 mg, Week 2, LOCF",−1
same,"Change from Baseline in PANSS Negative Subscale Score, Mean (S.D.)","[1]; Bifeprunox 10 mg, Week 3, LOCF",−1.7 (5.0)
same,"Change from Baseline in PANSS Negative Subscale Score, Median","[1]; Bifeprunox 10 mg, Week 3, LOCF",−1
same,"Change from Baseline in PANSS Negative Subscale Score, Mean (S.D.)","[1]; Bifeprunox 10 mg, Week 4, LOCF",−1.5 (4.6)
same,"Change from Baseline in PANSS Negative Subscale Score, Median","[1]; Bifeprunox 10 mg, Week 4, LOCF",−1
same,"Change from Baseline in PANSS Negative Subscale Score, Mean (S.D.)",[1]; [6],−2.6 (5.3)
same,"Change from Baseline in PANSS Negative Subscale Score, Median",[1]; [6],−2
same,"PANSS Negative Subscale Score, Trt Effect (bifeprunox—placebo)",[1]; [6],−1.4
same,"Change from Baseline in PANSS Negative Subscale Score, Mean (S.D.)","[1]; Bifeprunox 20 mg, Week 1, LOCF",−1.6 (3.4)
same,"Change from Baseline in PANSS Negative Subscale Score, Median","[1]; Bifeprunox 20 mg, Week 1, LOCF",−1
same,"Change from Baseline in PANSS Negative Subscale Score, Mean (S.D.)","[1]; Bifeprunox 20 mg, Week 2, LOCF",−2.0 (4.2)
same,"Change from Baseline in PANSS Negative Subscale Score, Median","[1]; Bifeprunox 20 mg, Week 2, LOCF",−1
same,"Change from Baseline in PANSS Negative Subscale Score, Mean (S.D.)","[1]; Bifeprunox 20 mg, Week 3, LOCF",−2.7 (4.4)
same,"Change from Baseline in PANSS Negative Subscale Score, Mean (S.D.)","[1]; Bifeprunox 20 mg, Week 4, LOCF",−2.5 (4.6)
same,"Change from Baseline in PANSS Negative Subscale Score, Median","[1]; Bifeprunox 20 mg, Week 4, LOCF",−2
same,"Change from Baseline in PANSS General Psychopathology Subscale Score, Mean (S.D.)","[2]; Bifeprunox 5 mg, Endpoint LOCF",−4.4 (9.4)
same,"Change from Baseline in PANSS General Psychopathology Subscale Score, Median","[2]; Bifeprunox 5 mg, Endpoint LOCF",−5
same,"Trt Effect (versus placebo), PANSS General Psychopathology Subscale Score","[2]; Bifeprunox 5 mg, Endpoint LOCF",−2.2
same,"Change from Baseline in PANSS General Psychopathology Subscale Score, Mean (S.D.)","[2]; Bifeprunox 5 mg, Week 1, LOCF",−1.7 (7.6)
same,"Change from Baseline in PANSS General Psychopathology Subscale Score, Median","[2]; Bifeprunox 5 mg, Week 1, LOCF",−2
same,"Change from Baseline in PANSS General Psychopathology Subscale Score, Mean (S.D.)","[2]; Bifeprunox 5 mg, Week 2, LOCF",−2.8 (8.1)
same,"Change from Baseline in PANSS General Psychopathology Subscale Score, Median","[2]; Bifeprunox 5 mg, Week 2, LOCF",−2
same,"Change from Baseline in PANSS General Psychopathology Subscale Score, Mean (S.D.)","[2]; Bifeprunox 5 mg, Week 3, LOCF",−3.3 (8.8)
same,"Change from Baseline in PANSS General Psychopathology Subscale Score, Median","[2]; Bifeprunox 5 mg, Week 3, LOCF",−3
same,"Change from Baseline in PANSS General Psychopathology Subscale Score, Mean (S.D.)","[2]; Bifeprunox 5 mg, Week 4, LOCF",−3.7 (9.1)
same,"Change from Baseline in PANSS General Psychopathology Subscale Score, Median","[2]; Bifeprunox 5 mg, Week 4, LOCF",−4
same,"Change from Baseline in PANSS General Psychopathology Subscale Score, Mean (S.D.)",[2]; [5],−2.0 (9.2)
same,"Change from Baseline in PANSS General Psychopathology Subscale Score, Median",[2]; [5],−1
same,"Trt Effect (versus placebo), PANSS General Psychopathology Subscale Score",[2]; [5],0.4
same,"Change from Baseline in PANSS General Psychopathology Subscale Score, Mean (S.D.)","[2]; Bifeprunox 10 mg, Week 1, LOCF",−0.9 (6.2)
same,"Change from Baseline in PANSS General Psychopathology Subscale Score, Median","[2]; Bifeprunox 10 mg, Week 1, LOCF",0
same,"Change from Baseline in PANSS General Psychopathology Subscale Score, Mean (S.D.)","[2]; Bifeprunox 10 mg, Week 2, LOCF",−1.5 (7.7)
same,"Change from Baseline in PANSS General Psychopathology Subscale Score, Median","[2]; Bifeprunox 10 mg, Week 2, LOCF",−2
same,"Change from Baseline in PANSS General Psychopathology Subscale Score, Mean (S.D.)","[2]; Bifeprunox 10 mg, Week 3, LOCF",−1.7 (9.0)
same,"Change from Baseline in PANSS General Psychopathology Subscale Score, Median","[2]; Bifeprunox 10 mg, Week 3, LOCF",−1
same,"Change from Baseline in PANSS General Psychopathology Subscale Score, Mean (S.D.)","[2]; Bifeprunox 10 mg, Week 4, LOCF",−1.4 (8.8)
same,"Change from Baseline in PANSS General Psychopathology Subscale Score, Median","[2]; Bifeprunox 10 mg, Week 4, LOCF",−1
same,"Change from Baseline in PANSS General Psychopathology Subscale Score, Mean (S.D.)",[2]; [6],−5.1 (8.8)
same,"Change from Baseline in PANSS General Psychopathology Subscale Score, Median",[2]; [6],−5
same,"Trt Effect (versus placebo), PANSS General Psychopathology Subscale Score",[2]; [6],−2.8
same,"Change from Baseline in PANSS General Psychopathology Subscale Score, Mean (S.D.)","[2]; Bifeprunox 20 mg, Week 1, LOCF",−3.0 (6.4)
same,"Change from Baseline in PANSS General Psychopathology Subscale Score, Median","[2]; Bifeprunox 20 mg, Week 1, LOCF",−2
same,"Change from Baseline in PANSS General Psychopathology Subscale Score, Mean (S.D.)","[2]; Bifeprunox 20 mg, Week 2, LOCF",−4.4 (7.5)
same,"Change from Baseline in PANSS General Psychopathology Subscale Score, Median","[2]; Bifeprunox 20 mg, Week 2, LOCF",−5
same,"Change from Baseline in PANSS General Psychopathology Subscale Score, Mean (S.D.)","[2]; Bifeprunox 20 mg, Week 3, LOCF",−5.2 (7.9)
same,"Change from Baseline in PANSS General Psychopathology Subscale Score, Median","[2]; Bifeprunox 20 mg, Week 3, LOCF",−6
same,"Change from Baseline in PANSS General Psychopathology Subscale Score, Mean (S.D.)","[2]; Bifeprunox 20 mg, Week 4, LOCF",−5.2 (8.4)
same,"Change from Baseline in PANSS General Psychopathology Subscale Score, Median","[2]; Bifeprunox 20 mg, Week 4, LOCF",−6
same,"PANSS general psychopathology score, estimate of the treatment effect","[2]; bifeprunox 5 mg, LOCF",−2.2
same,"PANSS general psychopathology score, estimate of the treatment effect","[2]; bifeprunox 10 mg, LOCF",0.4
same,"PANSS general psychopathology score, estimate of the treatment effect","[2]; bifeprunox 20 mg, LOCF",−2.8
same,mean weight change at Endpoint,[3]; bifeprunox 5 mg,−1.0 lb
same,subjects whose weight decreased by more than 7%,[3]; bifeprunox 5 mg,6%
same,mean weight change at Endpoint,[3]; bifeprunox 10 mg,−1.3 lb
same,subjects whose weight decreased by more than 7%,[3]; bifeprunox 10 mg,7%
same,mean weight change at Endpoint,[3]; bifeprunox 20 mg,−0.6 lbs
same,subjects whose weight decreased by more than 7%,[3]; bifeprunox 20 mg,8%
same,body weight (in words),"[3]; bifeprunox groups, 6 weeks",Mild weight loss
same,weight compared to placebo,"[3]; bifeprunox, 6 weeks (Example 4)",statistically significant (P<0.05) weight decrease
same,prolactin,[4],a decrease in prolactin

# — patent publication US20090068290A1, “BIFEPRUNOX DOSES FOR TREATING SCHIZOPHRENIA” (priority 2006, published 2009)
